Data on 11 molecules can be found in US20260083703A1, “INDOLINE DERIVATIVES AS SEROTONERGIC AGENTS USEFUL FOR THE TREATMENT OF DISORDERS RELATED THERETO” (MINDSET PHARMA INC., priority 2022, published 2026).

“And” between values parts separate entries of the source, which are not always exact repeats. Equal values may be shown once.

Series [1] deals with T1, human 5-HT2A (h5-HT2A) receptor (Homo sapiens, UniProt P28223).
T1 construct: expressed in transfected cells; grown under G418 and hygromycin B selection
T1 sequence (P28223 whole entry): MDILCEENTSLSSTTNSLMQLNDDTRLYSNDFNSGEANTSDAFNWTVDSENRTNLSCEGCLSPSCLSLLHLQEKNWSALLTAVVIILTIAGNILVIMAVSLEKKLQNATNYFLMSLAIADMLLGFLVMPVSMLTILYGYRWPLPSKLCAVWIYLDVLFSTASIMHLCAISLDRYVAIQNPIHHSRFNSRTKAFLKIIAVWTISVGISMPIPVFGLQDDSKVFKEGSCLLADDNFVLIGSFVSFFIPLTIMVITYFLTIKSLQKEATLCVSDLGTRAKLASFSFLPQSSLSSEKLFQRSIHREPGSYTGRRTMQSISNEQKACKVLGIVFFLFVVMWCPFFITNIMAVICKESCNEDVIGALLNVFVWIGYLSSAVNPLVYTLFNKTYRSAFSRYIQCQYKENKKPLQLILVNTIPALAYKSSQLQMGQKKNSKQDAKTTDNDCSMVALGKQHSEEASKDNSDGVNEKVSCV
In words: FLIPR assay, human 5-HT2A, agonist mode. Format: cell-based. Here is the method: I. Assessment of the Effect of Exemplary Compounds of Formula I Targeting on Human 5-HT2A (h5-HT2A) Receptor Under Agonist Mode:
I.c. Experimental Methods and Procedures: • 1. Cells were cultured in cell culture medium (DMEM containing 10% FBS, 1×penicillin-streptomycin 300 μg/ml G418 and 100 μg/ml hygromycin B) at 37° C., 5% (v/v) CO2. • 2. One day before the assays, the cells were detached using TrypLE™ Express and cells were counted using cell counter. Only cells with >85% viability were used for the assay. • 3. 20000 cells/well were seeded in 30 μl/well culture medium to a 384-well cell plate and cells were incubated overnight at 37° C., 5% (v/v) CO2. • 4. On the assay day, 2×dye solution was prepared following the manual of the FLIPR® Calcium 6 Assay Kit: i. The dye was diluted with assay buffer (20 mM HEPES in 1×HBSS, PH7.4); ii. Probenecid was added to the final concentration of 5 mM; iii. Vortex vigorously for 1-2 minutes. • 5. Medium was removed from cell plate by flicking the cell plate on towel papers. • 6. 10 μl of assay buffer and 10 μl of 2×dye solution was added to each well of the cell plate. • 7. The cell plate was placed on plate shaker, the plate was agitated at 600 rpm for 2 minutes. The plate was incubated at 37° C. for 2 hours followed by additional 15-minute incubation at 25° C. • 8. 3×compound in assay buffer was prepared: a. Reference compounds were diluted to required concentration with DMSO. The compounds were added to a 384-well compound plate; b. Serial dilutions were performed; c. 10 mM test compounds were added to the compound plate, and 3-fold serial dilutions were performed. d. Transfer 60 nl/well of compounds from source plate to a 384-well compound plate (Corning, 3657) by using an Echo; e. Add 20 μl/well assay buffer to the compound plate; f. Mix the plate on plate shaker for 2 mins; • 9. The cell plate, compound plate and tips were put into FLIPR, 10 μl of 3× compound was transferred to the cell plate per well with FLIPR.
• i. The normalized fluorescence reading (RFU) was calculated as shown below, where Fmax and Fmin stand for maximum and minimum of calcium signal during defined time window: RFU=Fmax−Fmin. • ii. Calculate the percentage activation using following equation:
[formula] • Iii. Calculate EC50 by fitting % activation against log of compound concentrations with Hill equation using XLfit.

In series [2] the test system is Male, C57BL/6J mice. In words: Mouse head twitch. The class given is in vivo. The conditions noted are these: for other behavioural and somatic signs accompanying head twitches: psilocybin at 3 and 10 mg/kg, 5-MeO DMT over 3-30 mg/kg. The procedure:
The effect of different doses of representative compounds of Formula I are evaluated on head-twitch response (HTR) and other behavioural responses as behavior-based models of psychedelic activity.
Male, C57BL/6J mice (body weight range 20-30 g) were dosed with the appropriate dose of test article, and following a 1-minute pre-treatment time, placed in individual observation chambers. Animals were visually assessed for the incidence head twitches continuously over a 1 hr period. Head twitches were defined as a rapid jerk of the head which was not elicited by an external tactile stimulus (Come and Pickering, Psychopharmacologia, 1967, 11(1): 65-78). Each head twitch was individually counted by a trained observer, and the data expressed as the mean±SEM of 6-10 mice per group. Mice were used in a single experiment only.

The nature of series [3]: Liver microsomes stability, human. On the technique in general: Microsomes from liver hold many membrane-bound enzymes, among them those of drug oxidation.
Series [4] is described as follows: Liver microsomes stability, rat. Particulars: for CLint scaled at 2 μM / half-life at 2 μM / microsomal CLint at 2 μM: rat liver microsomes.
Series [5] is described as follows: Liver microsomes stability, mouse. Particulars: for CLint scaled at 2 μM / half-life at 2 μM / microsomal CLint at 2 μM: male, microsomes.
The mark [6] stands for this setting: human, pooled human liver microsomes.

As for `CN(C)CCc1c[nH]c2ccccc12` [DMT, N,N-dimethyltryptamine, reference compound], the “5-HT2A (FLIPR) RFU@10 μM” value in series [1] came to 381 RFU.
Still for that read-out and setting: the figure for `COc1cc2c(cc1OC)C(C[C@H]1CCCN1C)CN2` (stereo partly drawn) [(R) I-81, 5,6-Dimethoxy-3-(((R)-I-methylpyrrolidin-2-yl)methyl)indoline] is 294 RFU.
Turning to `[2H]C([2H])([2H])N1CCC[C@@H]1CC1CNc2cc(OC)c(OC)cc21` (stereo partly drawn) [(R)-I-82, 5,6-dimethoxy-3-(((R)-I-(methyl-d3)pyrrolidin-2-yl)methyl)indoline], in series [1], the EC50 (usually the concentration at which the effect is half-maximal) was determined as 1560 nM and the “5-HT2A (FLIPR) RFU@10 μM” value turned out to be 479 RFU.
Consider `CN(C)CCc1c[nH]c2cccc(OP(=O)(O)O)c12` [Psilocybin], for which the “head twitch response (mean head twitches over 1 hr)” value is 4.8 in series [2] (0.1 mg/kg SC); 6.3 in series [2] (0.3 mg/kg SC); 16.3 in series [2] (1 mg/kg SC); 7.8 in series [2] (3 mg/kg SC); 5.5 in series [2] (10 mg/kg SC). Besides, the “dose of peak head twitch response” value in series [2] (SC) stood at 1 mg/kg. Also, in series [2] (SC), the “other behavioural and somatic signs accompanying head twitches” value was “decreased locomotion and decreased core body temperature”.
Consider `COc1ccc2[nH]cc(CCN(C)C)c2c1` [Compound 5-MeO-DMT], for which the “head twitch response (mean head twitches over 1 hr)” value in series [2] (1 mg/kg SC) is reported as 3.0; in series [2] (3 mg/kg SC) it was 4.2; in series [2] (10 mg/kg SC) it was 7.8; in series [2] (30 mg/kg SC) it was 12.3. For the same molecule, the “head twitch response over the dose range tested” value in series [2] (SC, psilocybin 0.1-10, 5-MeO DMT 1-30, (R)-I-54 1-60 mg/kg) was “monotonic increase in head twitches”. In addition, the “other behavioural and somatic signs accompanying head twitches” value in series [2] (SC) is reported as “other behavioural signs associated with 5-HT syndrome (forepaw treading, straub tail, body twitches, backwards walking) emerged”.
For the molecule `CN(C)CCc1c[nH]c2cccc(O)c12` [Psilocin, reference compound], in series [1], the “5-HT2A (FLIPR) RFU@10 μM” value is 416 RFU and 308 RFU.
With `COc1ccc2c(c1)C(C[C@H]1CCCN1)CN2` (stereo partly drawn) [(R)-I-165, 5-Methoxy-3-(((R)-pyrrolidin-2-yl)methyl)indoline], the “Predicted hepatic CL” value is given as 0.00 mL/min/kg in series [3] (human), 31.82 mL/min/kg in series [4] and 37.78 mL/min/kg in series [5]. Besides, in series [3] (human liver microsomes, 2 μM), the T1/2 result was “∞”. In addition, the “Remaining Percentage” value in series [3] (human, With NADPH, 0 min) was found to be 100.00%; in series [3] (human, With NADPH, 30 min), 111.72%; in series [3] (human, With NADPH, 60 min), 114.92%; in series [3] (human, Without NADPH, 0 min) it was 100.00%; in series [3] (human, Without NADPH, 30 min), 99.07%; in series [3] (human, Without NADPH, 60 min) it was 85.51%. The “Remaining Percentage” value in series [4] (With NADPH, 0 min) came to 100.00%; in series [4] (With NADPH, 30 min), 53.50%; in series [4] (With NADPH, 60 min) it was 28.43%; in series [4] (Without NADPH, 0 min), 100.00%; in series [4] (Without NADPH, 30 min), 106.00%; in series [4] (Without NADPH, 60 min) it was 119.73%. The “Remaining Percentage” value worked out at 100.00% in series [5] (With NADPH, 0 min); 90.44% in series [5] (With NADPH, 30 min); 63.99% in series [5] (With NADPH, 60 min); 100.00% in series [5] (Without NADPH, 0 min); 100.70% in series [5] (Without NADPH, 30 min); 117.77% in series [5] (Without NADPH, 60 min). This molecule also gave an EC50 in series [1] of 57 nM. Further, in series [1], the “5-HT2A (FLIPR) RFU@10 μM” value is reported as 1,318 RFU. Further, the figures for the CLint scaled at 2 μM in series [4] and in series [5] were 75.1 mL/min/kg and 65.1 mL/min/kg, respectively. In addition, the half-life (commonly the time in which the quantity being followed falls by half) at 2 μM in series [4] was 0.551 h; in series [5] it was 1.55 h. The results for the microsomal CLint at 2 μM in series [4] and in series [5] were 41.9 µL/min/mg and 14.9 µL/min/mg, respectively.
On to `COc1cccc2c1C(C[C@H]1CCCN1C)CN2` (stereo partly drawn) [(R)-I-94, 4-Methoxy-3-(((R)-I-methylpyrrolidin-2-yl)methyl)indoline], for which the “Predicted hepatic CL” value is recorded as 5.63 mL/min/kg in series [3] (human), 19.77 mL/min/kg in series [4] and greater than 84.35 mL/min/kg in series [5]. The “Remaining Percentage” value was determined as 100.00% in series [3] (human, With NADPH, 0 min); 100.93% in series [3] (human, With NADPH, 30 min); 83.11% in series [3] (human, With NADPH, 60 min); 100.00% in series [3] (human, Without NADPH, 0 min); 108.38% in series [3] (human, Without NADPH, 30 min); 98.20% in series [3] (human, Without NADPH, 60 min). The “Remaining Percentage” value in series [4] (With NADPH, 0 min) amounted to 100.00%; in series [4] (With NADPH, 30 min) it was 84.38%; in series [4] (With NADPH, 60 min), 59.71%; in series [4] (Without NADPH, 0 min), 100.00%; in series [4] (Without NADPH, 30 min), 104.88%; in series [4] (Without NADPH, 60 min) it was 96.34%. In addition, the “Remaining Percentage” value was 100.00% in series [5] (With NADPH, 0 min); 0.84% in series [5] (With NADPH, 30 min); 0.29% in series [5] (With NADPH, 60 min); 100.00% in series [5] (Without NADPH, 0 min); 109.64% in series [5] (Without NADPH, 30 min); 106.02% in series [5] (Without NADPH, 60 min). Further, the results for the CLint scaled at 2 μM in series [3] (setting [6]), in series [4] and in series [5] were 7.74 mL/min/kg, 30.8 mL/min/kg and greater than 1340 mL/min/kg, respectively. For the same molecule, the values for the half-life at 2 μM in series [3] (setting [6]), in series [4] and in series [5] were 3.74 h, 1.34 h and less than 0.0752 h, respectively. The microsomal CLint – broadly, a measure of how fast metabolising enzymes remove a compound, apart from limits set by blood flow – at 2 μM was 6.17 µL/min/mg in series [3] (setting [6]), 17.2 µL/min/mg in series [4] and greater than 307 µL/min/mg in series [5]. In series [1], this molecule returned an EC50 of 9 nM. The “5-HT2A (FLIPR) RFU@10 μM” value in series [1] is listed as 545 RFU.
Regarding `COc1ccc2c(c1)C(C[C@@H]1CCCN1C)CN2` (stereo partly drawn) [(S)-I-54, 5-Methoxy-3-(((S)-I-methylpyrrolidin-2-yl)methyl)indoline], the “5-HT2A (FLIPR) RFU@10 μM” value in series [1] worked out at 444 RFU.
For the molecule `CN1CCC[C@@H]1C[C@@H]1CNc2ccc(F)cc21` [(S),(R)-I-47, (S)-5-fluoro-3-(((R)-I-methylpyrrolidin-2-yl)methyl)indoline], in series [1], the EC50 was 76 nM and the “5-HT2A (FLIPR) RFU@10 μM” value was 797 RFU.
For `COc1cccc2c1NCC2C[C@H]1CCCN1C` (stereo partly drawn) [(R)-I-95, 7-Methoxy-3-(((R)-I-methylpyrrolidin-2-yl)methyl)indoline], the “5-HT2A (FLIPR) RFU@10 μM” value in series [1] was determined as 321 RFU.
